Results taken from ChEMBL document CHEMBL4837230, “Thiophene-2-carboxamide derivatives of anthraquinone: A new potent antitumor chemotype” (Eur J Med Chem, 2021).
The source made the active and inactive calls. No cut-off for these calls is given here.

Tests used:
K562 [1] = experiment: Cytotoxicity in human K562 cells assessed as reduction in cell viability at 2.5 uM incubated with compound for 30 mins followed by cell washing and measured after 72 hrs by propidium iodide staining based flow cytometric analysis; type: functional; details: 0.5 h
K562 [2] = experiment: Induction of cell cycle arrest in human K562 cells assessed as increase in accumulation at sub-G1 phase at 2.5 uM after 6 hrs by flow cytometric analysis (reference value: 22.1%); type: functional
[3] = Resistance index, ratio of IC50 for cytotoxicity against human K562/4 cells to IC50 for cytotoxicity against human K562 cells; type: functional
K562 [4] = experiment: Induction of mitochondrial membrane potential loss in human K562 cells at 2.5 uM after 6 hrs by Mitotracker Red dye based flow cytometric analysis(reference value: 6.4 %); type: functional
K562 [5] = experiment: Cytotoxicity in human K562 cells assessed as reduction in cell viability at 1 uM incubated for 72 hrs by propidium iodide staining based flow cytometric analysis; type: functional
K562 [6] = experiment: Induction of ROS generation in human K562 cells at 2.5 uM after 15 to 75 mins by Deep Red dye based flow cytometry method; type: functional, cell-based; details: time 15-75 min
K562 [7] = experiment: Induction of cell cycle arrest in human K562 cells assessed as increase in accumulation at G2/M phase at 2.5 uM after 4 hrs by flow cytometric analysis (reference value: 19.7%); type: functional
K562 [8] = experiment: Induction of mitochondrial membrane potential loss in human K562 cells at 2.5 uM after 3 hrs by Mitotracker Red dye based flow cytometric analysis(reference value: 7.8 %); type: functional
[9] = Cytotoxicity in human K562/4 cells assessed as reduction in cell viability incubated for 72 hrs by MTT assay; type: functional, cell-based; details: K562/4, 72 h
K562 [10] = experiment: Induction of apoptosis in human K562 cells assessed as activation of casapse-3 cleavage at 2.5 uM measured after 6 hrs by Western blot analysis; type: functional, cell-based
K562 [11] = experiment: Cytotoxicity in human K562 cells assessed as reduction in cell viability at 1 uM incubated with compound for 120 mins followed by cell washing and measured after 72 hrs by propidium iodide staining based flow cytometric analysis; type: functional; details: 2 h
Fibroblast = experiment: Cytotoxicity in human Fibroblast cells assessed as reduction in cell viability incubated for 72 hrs by MTT assay; type: functional, cell-based
K562 [12] = experiment: Induction of apoptosis in human K562 cells assessed as activation of PARP cleavage at 2.5 uM measured after 6 hrs by Western blot analysis; type: functional, cell-based
[13] = Resistance index, ratio of IC50 for cytotoxicity against p53 knock out human HCT-116 cells to IC50 for cytotoxicity against human HCT-116 cells; type: functional
K562 [14] = experiment: Induction of apoptosis in human K562 cells assessed as viable cells after 3 hrs by Annexin V-[…]/PI double staining based flow cytometric analysis (reference value: 91%); type: functional
K562 [15] = experiment: Cytotoxicity against human K562 cells in presence of NAC; type: functional, cell-based
K562 [16] = experiment: Induction of cell cycle arrest in human K562 cells assessed as increase in accumulation at S phase at 2.5 uM after 2 hrs by flow cytometric analysis (reference value: 23.1%); type: functional
K562 [17] = experiment: Induction of cell cycle arrest in human K562 cells assessed as increase in accumulation at S phase at 2.5 uM by flow cytometric analysis (reference value: 11.2%); type: functional
K562 [18] = experiment: Induction of cell cycle arrest in human K562 cells assessed as increase in accumulation at sub-G1 phase at 5 uM after 24 hrs by propidium iodide staining based flow cytometric analysis (reference value: 8.4%); type: functional
HL-60 = experiment: Cytotoxicity in human HL-60 cells assessed as reduction in cell viability incubated for 72 hrs by MTT assay; type: functional, cell-based; details: HL-60, 72 h
K562 [19] = experiment: Induction of apoptosis in human K562 cells assessed as late apoptotic cells after 3 hrs by Annexin V-APC/PI double staining based flow cytometric analysis (reference value: 2.6%); type: functional
HCT-116 [20] = experiment: Cytotoxicity in human HCT-116 cells assessed as reduction in cell viability incubated for 72 hrs by MTT assay; type: functional, cell-based; details: HCT-116, 72 h
K562 [21] = experiment: Cytotoxicity in human K562 cells assessed as reduction in cell viability at 2.5 uM incubated with compound for 120 mins followed by cell washing and measured after 72 hrs by propidium iodide staining based flow cytometric analysis; type: functional; details: 2 h
HeLa = experiment: Cytotoxicity in human HeLa cells assessed as reduction in cell viability incubated for 72 hrs by MTT assay; type: functional, cell-based
K562 [22] = experiment: Cytotoxicity in human K562 cells assessed as reduction in cell viability at 0.5 uM incubated for 72 hrs by propidium iodide staining based flow cytometric analysis; type: functional
K562 [23] = experiment: Induction of cell cycle arrest in human K562 cells assessed as increase in accumulation at S phase at 2.5 uM after 6 hrs by flow cytometric analysis (reference value: 37%); type: functional
K562 [24] = experiment: Induction of cell cycle arrest in human K562 cells assessed as increase in accumulation at sub-G1 phase at 0.5 uM after 24 hrs by propidium iodide staining based flow cytometric analysis (reference value: 8.4%); type: functional
K562 [25] = experiment: Cytotoxicity in human K562 cells assessed as reduction in cell viability at 2.5 uM incubated for 72 hrs by propidium iodide staining based flow cytometric analysis; type: functional
[26] = Drug localization in cytoplasm of mouse NIH3T3 cells at 1 uM incubated for 5 to 60 mins by laser confocal microscopy; type: ADME, cell-based; details: nih3t3, 1 µM, time 5-60 min
K562 [27] = experiment: Induction of cell cycle arrest in human K562 cells assessed as increase in accumulation at sub-G1 phase at 5 uM after 48 hrs by propidium iodide staining based flow cytometric analysis (reference value: 8.4%); type: functional
CAPAN-1 = experiment: Cytotoxicity in human CAPAN-1 cells assessed as reduction in cell viability incubated for 72 hrs by MTT assay; type: functional, cell-based; details: CAPAN-1, 72 h
K562 [28] = experiment: Induction of cell cycle arrest in human K562 cells assessed as increase in accumulation at G0/G1 phase at 2.5 uM after 6 hrs by flow cytometric analysis (reference value: 14.1%); type: functional
[29] = Drug localization in lysosome of mouse NIH3T3 cells at 1 uM incubated for 5 mins by lyso-tracker red based confocal microscopic method; type: ADME, cell-based; details: nih3t3, 5 min
K562 [30] = experiment: Induction of apoptosis in human K562 cells assessed as late apoptotic cells after 24 hrs by Annexin V-APC/PI double staining based flow cytometric analysis (reference value: 2.6%); type: functional
K562 [31] = experiment: Induction of apoptosis in human K562 cells assessed as early apoptotic cells after 24 hrs by Annexin V-APC/PI double staining based flow cytometric analysis (reference value: 0.1%); type: functional
HCT-116 [32] = experiment: Cytotoxicity against p53 knock out human HCT-116 cells assessed as reduction in cell viability incubated for 72 hrs by MTT assay; type: functional, cell-based; details: HCT-116, 72 h
K562 [33] = experiment: Induction of apoptosis in human K562 cells assessed as activation of casapse-9 cleavage at 2.5 uM measured after 6 hrs by Western blot analysis; type: functional, cell-based
K562 [34] = experiment: Induction of cell cycle arrest in human K562 cells assessed as increase in accumulation at S phase at 2.5 uM after 4 hrs by flow cytometric analysis (reference value: 47.1%); type: functional
K562 [35] = experiment: Induction of cell cycle arrest in human K562 cells assessed as increase in accumulation at G2/M phase at 2.5 uM after 6 hrs by flow cytometric analysis (reference value: 26.8%); type: functional

N[C@H]1CCN(C(=O)c2cc3c(O)c4c(c(O)c3s2)C(=O)c2ccccc2C4=O)C1
Activity (K562 [1]): 67.4% | Activity (K562 [2]): 24.6% | Ratio [3]: 1.3 | Activity (K562 [4]): 33.3% | Activity (K562 [5]): 79.9% | Activity (K562 [6]): inactive | Activity (K562 [7]): 17.3% | Activity (K562 [8]): 19.8% | IC50 [9]: 400 nM | Activity (K562 [10]): Active | Activity (K562 [11]): 56.4% | IC50 (Fibroblast): 1400 nM | Activity (K562 [12]): Active | Ratio [13]: 1 | Activity (K562 [14]): 47.9% | Activity (K562 [15]): Active | Activity (K562 [16]): 27.8% | Activity (K562 [17]): 12% | Activity (K562 [18]): 78.4% | IC50 (HL-60): 300 nM | Activity (K562 [19]): 13.2% | IC50 (HCT-116 [20]): 500 nM | Activity (K562 [21]): 76.5% | IC50 (HeLa): 400 nM | Activity (K562 [22]): 77.6% | Activity (K562 [23]): 29.8% | Activity (K562 [24]): 18.7% | Activity (K562 [25]): 94.8% | Drug uptake [26]: Active | Activity (K562 [27]): 89.7% | IC50 (CAPAN-1): 700 nM | Activity (K562 [28]): 31.7% | Drug uptake [29]: Active | Activity (K562 [30]): 49.3% | Activity (K562 [31]): 0.1% | IC50 (HCT-116 [32]): 500 nM | Activity (K562 [33]): Active | Activity (K562 [34]): 40.1% | Activity (K562 [35]): 13.9%
